According to ChEMBL document CHEMBL1143183, “New polyphenols active on beta-amyloid aggregation” (Bioorg Med Chem Lett, 2008):

Columns and labels:
[1] = Inhibition of beta amyloid 25-35 fibril formation at 10 uM
[2] = Inhibition of beta amyloid 25-35 fibril formation

Row | SMILES | inhibition [1] [%] | EC50 [2] [µM]
1 | COc1cc(/C=C/c2ccc(O)cc2)cc(OC)c1 | 35 | 
2 | COc1cccc(OC)c1C(=O)OCc1cc(O)ccc1O[C@@H]1O[C@H](CO)[C@@H](O)[C@H](O)[C@H]1O | 28 | 
3 | O=C(O)/C=C/c1ccc(O)c(O)c1 | 15 | 
4 | O=C(O)/C=C/c1ccc(O)cc1 | 17 | 
5 | O=C(O)c1ccc(O)cc1 | 29 | 
6 | O=C(O[C@@H]1Cc2c(O)cc(O)cc2O[C@@H]1c1cc(O)c(O)c(O)c1)c1cc(O)c(O)c(O)c1 | 13 | 
7 | O=C(O[C@@H]1Cc2c(O)cc(O)cc2O[C@@H]1c1ccc(O)c(O)c1)c1cc(O)c(O)c(O)c1 | 13 | 
8 | OC[C@H]1O[C@@H](Oc2cc3c(O)cc(O)cc3[o+]c2-c2ccc(O)c(O)c2)[C@H](O)[C@@H](O)[C@@H]1O | 31 | 
9 | Oc1cc(O)c2c(c1)O[C@H](c1cc(O)c(O)c(O)c1)[C@H](O)C2 | 18 | 
10 | Oc1cc(O)c2cc(O)c(-c3cc(O)c(O)c(O)c3)[o+]c2c1 | 26 | 
11 | Oc1cc(O)c2cc(O)c(-c3ccc(O)c(O)c3)[o+]c2c1 | 35 | 
12 | COc1cccc(O)c1C(=O)OCc1cc(O)ccc1O[C@@H]1O[C@H](CO)[C@@H](O)[C@H](O)[C@H]1O [CURCULIGOSIDE B] | 53 | 8.5
13 | COc1ccc(O)c(OC)c1C(=O)OCc1ccccc1O[C@@H]1O[C@H](CO)[C@@H](O)[C@H](O)[C@H]1O [CURCULIGOSIDE D] | 49 | 9.5
14 | COc1cc(/C=C/C(=O)CC(=O)/C=C/c2ccc(O)c(OC)c2)ccc1O [CURCUMIN] | 45 | 10
15 | COc1cc(-c2[o+]c3cc(O)cc(O)c3cc2O)cc(OC)c1O [MALVIDIN] | 46 | 10
16 | COc1cc(-c2[o+]c3cc(O)cc(O)c3cc2O[C@@H]2O[C@H](CO)[C@@H](O)[C@H](O)[C@H]2O)cc(OC)c1O [OENIN] | 44 | 10
17 | Oc1ccc(/C=C/c2cc(O)cc(O)c2)cc1 [RESVERATROL] | 63 | 6
